Reference: patent US10399978B2, “Imidazopyridine thioglycolic acid derivatives as potent inhibitors of human urate transporter 1” (SHANDONG UNIVERSITY, priority 2016, dated 2019)

What was measured:
[1] = test system: mice with acute hyperuricemia; assay: In vivo activity of reducing serum uric acid (acute hyperuricemia induced with xanthine and potassium oxonate); design: species or system Kunming mice; settings: for BUA (blood uric acid concentration): hyperuricemic Kunming mice; for anti-gout activity, compared with positive control benzbromarone: batch 1, conclusion from Table 2
Experimental: All newly synthesized target compounds were primarily evaluated for their activities of reducing blood uric acid in vivo (mice). Benzbromarone and lesinurad were selected as positive control drugs.
Example 46. In Vivo Activity of Reducing Serum Uric Acid
• (1) Experimental animal: Kunming mice, provided by Experimental Animal Center of Shandong University • (2) Preparation of compounds: Compounds were dissolved in ethanol and CMC-Na. • (3) Modeling drugs: Xanthine and potassium oxonate • (4) Reference drugs: Benzbromarone and Lesinurad • (5) Test method: The model group consisted of mice with acute hyperuricemia induced with 0.2 mL xanthine intragastric injection and 0.2 mL potassium oxonate subcutaneous injection, and not treated with test compound.

[2] = batch 2, Model 576.5 ± 120.5, Blank 262 ± 43.6, Blank (CMC-Na) 286 ± 90.9
[3] = batch 1, Model 1462.6 ± 194.3, Blank 377.2 ± 27.6

Structure (SMILES) | BUA (blood uric acid concentration) [1, 3] | other results
O=C(O)CSc1nnc(Br)n1-c1ccc(C2CC2)c2ccccc12 [RDEA594, Lesinurad, reference compound] |  | BUA (blood uric acid concentration) [1, 2]: 409.5 ± 124.3 µM
CCOC(=O)C(C)(C)Sc1nc2ncccc2n1-c1ccc(C2CC2)c2ccccc12 [Compound T4] |  | BUA (blood uric acid concentration) [1, 2]: 306 ± 46.8 µM
CC(C)(Sc1nc2cccnc2n1-c1ccc(C2CC2)c2ccccc12)C(=O)O [Compound Q8] | 1448 ± 216.7 µM | 
CCOC(=O)C(C)Sc1nc2cccnc2n1-c1c(C)cc(C)cc1C (centres unmarked) [Compound X3] | 983.2 ± 122.6 µM | 
CC(Sc1nc2ncccc2n1-c1ccc(C2CC2)c2ccccc12)C(=O)O (centres unmarked) [Compound T7] |  | BUA (blood uric acid concentration) [1, 2]: 189.7 ± 67.8 µM
CCOC(=O)C(C)Sc1nc2cccnc2n1-c1cccc2ccccc12 (centres unmarked) [Compound M3] | 1321.5 ± 183.5 µM | 
O=C(O)CSc1nc2cccnc2n1-c1ccc(C2CC2)c2ccccc12 [Compound Q5] | 824 ± 109.9 µM | 
CCOC(=O)CCCSc1nc2cccnc2n1-c1c(C)cc(C)cc1C [Compound X2] | 1107.7 ± 195.1 µM | 
CCOC(=O)CSc1nc2cccnc2n1-c1c(C)cc(C)cc1C [Compound X1] | 1255.2 ± 184 µM | 
CCc1oc2ccccc2c1C(=O)c1cc(Br)c(O)c(Br)c1 [Benzbromarone, reference compound] | 762.5 ± 30.3 µM | 
CC(Sc1nc2cccnc2n1-c1cccc2ccccc12)C(=O)O (centres unmarked) [Compound M7] | 1307.2 ± 133.1 µM | 
CCOC(=O)C(C)(C)Sc1nc2cccnc2n1-c1cccc2ccccc12 [Compound M4] | 1363 ± 184.7 µM | 
CCOC(=O)CSc1nc2cccnc2n1-c1cccc2ccccc12 [Compound M1] | 1507.6 ± 229.2 µM | melting point: 116.5 to 117 °C
CCOC(=O)CCCSc1nc2cccnc2n1-c1ccc(C2CC2)c2ccccc12 [Compound Q2] | 1422.6 ± 194.4 µM | 
O=C(O)CCCSc1nc2cccnc2n1-c1cccc2ccccc12 [Compound M6] | 1342 ± 144.3 µM | 
CCOC(=O)CSc1nc2cccnc2n1-c1ccc(C2CC2)c2ccccc12 [Compound Q1] | 1344.75 ± 287.5 µM | 
CC(C)(Sc1nc2ncccc2n1-c1ccc(C2CC2)c2ccccc12)C(=O)O [Compound T8] |  | BUA (blood uric acid concentration) [1, 2]: 295.2 ± 54 µM

Structure (SMILES) | BUA (blood uric acid concentration) [1, 3] | other results
O=C(O)CCCSc1nc2ncccc2n1-c1ccc(C2CC2)c2ccccc12 [Compound T6] |  | BUA (blood uric acid concentration) [1, 2]: 330 ± 29.1 µM
CCOC(=O)C(C)(C)Sc1nc2cccnc2n1-c1ccc(C2CC2)c2ccccc12 [Compound Q4] | 1328.2 ± 163.8 µM | 
CCOC(=O)CCCSc1nc2ncccc2n1-c1ccc(C2CC2)c2ccccc12 [Compound T2] |  | BUA (blood uric acid concentration) [1, 2]: 334 ± 65.7 µM
CCOC(=O)CCCSc1nc2cccnc2n1-c1cccc2ccccc12 [Compound M2] | 634.7 ± 97.7 µM | anti-gout activity, compared with positive control benzbromarone [1]: significant anti-gout activity
Cc1cc(C)c(-n2c(SCC(=O)O)nc3cccnc32)c(C)c1 [Compound X5] | 1310.2 ± 155.8 µM | 
Cc1cc(C)c(-n2c(SC(C)(C)C(=O)O)nc3cccnc32)c(C)c1 [Compound X8] | 1288 ± 211.5 µM | 
Cc1cc(C)c(-n2c(SCCCC(=O)O)nc3cccnc32)c(C)c1 [Compound X6] | 655.2 ± 210.8 µM | anti-gout activity, compared with positive control benzbromarone [1]: significant anti-gout activity
CCOC(=O)C(C)Sc1nc2ncccc2n1-c1ccc(C2CC2)c2ccccc12 (centres unmarked) [Compound T3] |  | BUA (blood uric acid concentration) [1, 2]: 339 ± 29.8 µM
CCOC(=O)C(C)(C)Sc1nc2cccnc2n1-c1c(C)cc(C)cc1C [Compound X4] | 689.2 ± 53.4 µM | anti-gout activity, compared with positive control benzbromarone [1]: significant anti-gout activity
Cc1cc(C)c(-n2c(SC(C)C(=O)O)nc3cccnc32)c(C)c1 (centres unmarked) [Compound X7] | 727.2 ± 150.7 µM | anti-gout activity, compared with positive control benzbromarone [1]: significant anti-gout activity
CC(C)(Sc1nc2cccnc2n1-c1cccc2ccccc12)C(=O)O [Compound M8] | 1229 ± 150.2 µM | 
O=C(O)CSc1nc2cccnc2n1-c1cccc2ccccc12 [Compound M5] | 1307.5 ± 195.3 µM | melting point: 129 to 130 °C
O=C(O)CSc1nc2ncccc2n1-c1ccc(C2CC2)c2ccccc12 [Compound T5] |  | BUA (blood uric acid concentration) [1, 2]: 342 ± 44.1 µM
CCOC(=O)CSc1nc2ncccc2n1-c1ccc(C2CC2)c2ccccc12 [Compound T1] |  | BUA (blood uric acid concentration) [1, 2]: 353.5 ± 35.6 µM
CCOC(=O)C(C)Sc1nc2cccnc2n1-c1ccc(C2CC2)c2ccccc12 (centres unmarked) [Compound Q3] | 672 ± 76.2 µM | anti-gout activity, compared with positive control benzbromarone [1]: significant anti-gout activity
O=C(O)CCCSc1nc2cccnc2n1-c1ccc(C2CC2)c2ccccc12 [Compound Q6] | 1490.7 ± 269.9 µM | 
CC(Sc1nc2cccnc2n1-c1ccc(C2CC2)c2ccccc12)C(=O)O (centres unmarked) [Compound Q7] | 763.2 ± 248.7 µM | 
